The values that follow are results of earlier work, collected in US20210106592A1, “METHODS AND COMPOSITIONS FOR THE TREATMENT OF TRAUMATIC BRAIN INJURY (TBI) AND RELATED DISORDERS” (priority 2017, published 2021).

SMILES strings stand for the structures.

The subject of one data set is sigma. Particulars: recent basic research.
The next data set has as its system cholinergic receptors. To be noted: in vitro; last in the decreasing order H1, H2 > 5-HT2 > D2, D1 > a1 > cholinergic.
The target of data set [1] is serotonin (5-HT) reuptake (Homo sapiens, UniProt P31645).
For a further data set, the target named is noradrenaline reuptake (Homo sapiens, UniProt P23975).
Data set [2] deals with generalized anxiety disorders. Particulars: patients with generalized anxiety disorders; versus placebo and alprazolam.

noradrenaline reuptake, sequence (P23975 whole entry): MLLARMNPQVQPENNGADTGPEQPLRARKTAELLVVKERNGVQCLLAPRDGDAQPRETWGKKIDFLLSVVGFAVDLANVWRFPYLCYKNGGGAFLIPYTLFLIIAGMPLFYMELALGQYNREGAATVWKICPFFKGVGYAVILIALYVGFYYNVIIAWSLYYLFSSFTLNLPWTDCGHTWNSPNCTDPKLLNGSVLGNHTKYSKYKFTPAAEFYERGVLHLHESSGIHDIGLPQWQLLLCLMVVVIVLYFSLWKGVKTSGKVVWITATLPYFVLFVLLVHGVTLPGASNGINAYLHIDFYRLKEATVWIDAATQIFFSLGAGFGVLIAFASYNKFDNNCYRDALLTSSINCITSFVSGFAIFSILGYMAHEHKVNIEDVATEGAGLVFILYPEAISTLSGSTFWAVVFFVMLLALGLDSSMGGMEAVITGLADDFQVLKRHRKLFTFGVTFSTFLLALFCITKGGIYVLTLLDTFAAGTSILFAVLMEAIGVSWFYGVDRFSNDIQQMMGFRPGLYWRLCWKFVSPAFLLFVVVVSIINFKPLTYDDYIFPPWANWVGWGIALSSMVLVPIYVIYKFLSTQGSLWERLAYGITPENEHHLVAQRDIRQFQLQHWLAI
serotonin (5-HT) reuptake, sequence (P31645 whole entry): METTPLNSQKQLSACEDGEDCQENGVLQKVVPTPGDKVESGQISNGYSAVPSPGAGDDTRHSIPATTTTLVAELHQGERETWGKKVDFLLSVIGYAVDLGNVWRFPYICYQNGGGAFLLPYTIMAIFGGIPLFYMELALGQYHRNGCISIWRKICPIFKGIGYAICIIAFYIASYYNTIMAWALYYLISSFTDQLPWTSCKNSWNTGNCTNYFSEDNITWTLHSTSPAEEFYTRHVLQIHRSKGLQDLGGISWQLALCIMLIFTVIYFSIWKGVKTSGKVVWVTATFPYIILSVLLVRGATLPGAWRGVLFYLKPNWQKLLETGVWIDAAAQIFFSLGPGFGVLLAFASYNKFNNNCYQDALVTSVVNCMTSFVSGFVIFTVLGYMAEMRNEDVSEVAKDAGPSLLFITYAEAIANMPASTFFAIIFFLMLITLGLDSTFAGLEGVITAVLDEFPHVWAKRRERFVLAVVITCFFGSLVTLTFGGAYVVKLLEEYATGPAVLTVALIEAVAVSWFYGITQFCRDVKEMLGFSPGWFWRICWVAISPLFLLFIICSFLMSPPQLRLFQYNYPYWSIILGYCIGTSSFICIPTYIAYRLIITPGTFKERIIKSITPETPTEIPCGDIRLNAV

As for `Cl.Cl.OCCN1CCN(CCCN2c3ccccc3C=Cc3ccccc32)CC1` [opipramol, 4-[3-(5H-dibenz[b,f]-azepine-5-yl)-propyl]-1-piperazine-ethanol dihydrochloride], the sigma ligand strength entry in the data set on sigma was “strong sigma ligand”. Moreover, in the data set on cholinergic receptors, the “blockade of cholinergic receptors” value is given as “very weakly”. For the same compound, in data set [1], the “reuptake inhibiting properties for serotonin (5-HT)” value is “without reuptake inhibiting properties”. For the same compound, at noradrenaline reuptake, the “reuptake inhibiting properties for noradrenaline” value is reported as “without reuptake inhibiting properties”. Further, the anxiolytic efficacy result in data set [2] was “superiority over placebo and similar efficacy to alprazolam”.
